From patent US4513009A, “Aminoacid derivatives and their therapeutic applications” (priority 1980, dated 1985)
pIC50: −log10 of the molar value.

Columns and labels:
[1] = tested on: mice; conditions: mouse, in vivo
[2] = target: enkephalinase (enkephalin dipeptidylcarboxypeptidase); assay: Determination of enkephalinasic (enkephalin dipeptidylcarboxypeptidasic) activity and effect of inhibitors, striatal membrane fraction, 3H-leucine-enkephalin; assay type: biochemical, rats or mice; conditions: 10 nM leucine-enkephalin 3H, 25° C., pH 7.4, 15 mn, read-out: 50% inhibitory concentration
Description: Determination of the "enkephalinasic" (enkephalin dipeptidylcarboxypeptidasic) activity and determination of the effect of inhibitors.
The enzyme preparation used is a membrane fraction from the striatum of rats or mice.
This fraction is obtained by homogenization at 4° C. in 20 volumes Tris-HCl buffer 0.05M (pH 7.4) followed by two successive centrifugations (1000 g×min. and 200,000 g×min.) at the end of which the sediment of the second centrifugation is retained. It is washed by re-suspension in 10 ml of the buffer followed by centrifugation (200,000 g×min) and the resulting sediment is in turn washed superficially to complete the removal of the soluble enzymes. The resulting membrane fraction is taken up into the buffer at 4° C., to obtain a suspension comprising about 1.5 mg proteins per ml.
An aliquot sample (50 μl) of the membrane suspension is then incubated in a final volume of 100 μl at 25° C. in the presence of 10 nM leucine-enkephalin ^3 H (39 Ci/mmole), previously purified by column chromatography over Porapak Q (100-120 mesh, Waters Assoc.) and […] puromycine, an aminopeptidase inhibitor. Incubation time is generally set at 15 mn. in order to determine the initial rate of the formation of tripeptide Tyr-Gly-Gly-^3 H characteristic of the enkephalin dipeptidylcarboxypeptidasic (enkephalinasic) activity.
Determination of the radioactivity of the tripeptide is effected by liquid scintillation spectrometry. […]

[3] = tested on: licking reflex of mice on a plate heated at 55° C.; assay: Hot-plate test (55° C.): specific antalgic effect; assay type: in vivo; conditions: intravenous
Description: Licking reflex of mice on a plate heated at 55° C. according to the method of Jacob. and co-workers (Arch. Int. Pharmacodyn. 122, 287-300, 1959: 133, 296-300, 1961).
(b) Specific antalgic effect

[4] = tested on: mice; assay: Subacute toxicity, 3 weeks in mice, with reversibility test; conditions: 50 mg/kg 3 times/day, vs solvent controls
[5] = tested on: phenylbenzoquinone-induced pain; assay: Phenylbenzoquinone or writhing test; assay type: in vivo; conditions: 0.7 mg/kg i.v.; vs controls p<0.01
From the text: 3--Phenylbenzoquinone or "writhing test" according to the method of SIEGMUND and co-workers (Proc. Soc. Expert. Biol. Med. 1957, 95, 729-731).

Compound: CC(=O)SCC(Cc1ccccc1)C(=O)NCC(=O)OCc1ccccc1 (stereo not drawn) [Compound 53, N-[3-Acetylthio-2-benzylpropanoyl]glycine benzyl ester]
- tolerance, habit-forming and weaning phenomena (reversibility test) [1]: no sign of tolerance, of habit-forming, and no weaning phenomena could be observed
- pIC50 [2]: 6.42
- ED50 ([3]; Mus musculus, hot plate 55° C.): 3 mg/kg
- antalgic effect in the hot (55° C.) plate test [3]: have an antalgic effect
- weight of the organs and their anatomic-pathologic examination [4]: failed to show any difference with respect to the solvent controls
- protection from phenylbenzoquinone-induced pain [5]: protect the treated animals from phenylbenzoquinone-induced pain, with a significant difference with respect to the controls, p<0.01
